Experiment: The drug is tested on Eubacterium rectale strain: ATCC33656 for biotransformation. The drug concentrations were measured before and after a 12-h incubation by liquid-chromatography-coupled mass spectrometry (LC–MS)
Conditions: agathobacter rectalis, 2 µM
For `COc1ccccc1OCC(O)COC(N)=O` (stereo not given) [METHOCARBAMOL], the “Bacterial Biotransformation” value was “Compound NOT metabolized”. In the case of `OCCN1CCN(CCCN2c3ccccc3Sc3ccc(C(F)(F)F)cc32)CC1` [FLUPHENAZINE], the “Bacterial Biotransformation” value is reported as “Compound metabolized”.

Experiment: The drug is tested on Clostridium symbiosum strain: ATCC14940 for biotransformation. The drug concentrations were measured before and after a 12-h incubation by liquid-chromatography-coupled mass spectrometry (LC–MS)
Conditions: 2 µM
For `COc1ccccc1OCC(O)COC(N)=O` (stereo not given) [METHOCARBAMOL], the “Bacterial Biotransformation” value was “Compound NOT metabolized”.

Experiment: The drug is tested on Subdoligranulum variabile strain: DSM15176 for biotransformation. The drug concentrations were measured before and after a 12-h incubation by liquid-chromatography-coupled mass spectrometry (LC–MS)
Conditions: 2 µM
In the case of `COc1ccccc1OCC(O)COC(N)=O` (stereo not given) [METHOCARBAMOL], the “Bacterial Biotransformation” value is reported as “Compound NOT metabolized”. In the case of `OCCN1CCN(CCCN2c3ccccc3Sc3ccc(C(F)(F)F)cc32)CC1` [FLUPHENAZINE], the “Bacterial Biotransformation” value is reported as “Compound NOT metabolized”.

Experiment: The drug is tested on Alistipes indistinctus strain: DSM22520 for biotransformation. The drug concentrations were measured before and after a 12-h incubation by liquid-chromatography-coupled mass spectrometry (LC–MS)
Conditions: 2 µM
In the case of `COc1ccccc1OCC(O)COC(N)=O` (stereo not given) [METHOCARBAMOL], the “Bacterial Biotransformation” value is reported as “Compound NOT metabolized”. In the case of `OCCN1CCN(CCCN2c3ccccc3Sc3ccc(C(F)(F)F)cc32)CC1` [FLUPHENAZINE], the “Bacterial Biotransformation” value is reported as “Compound NOT metabolized”.

Experiment: The drug is tested on Bacteroides pectinophilus strain: ATCC43243 for biotransformation. The drug concentrations were measured before and after a 12-h incubation by liquid-chromatography-coupled mass spectrometry (LC–MS)
Conditions: 2 µM
With `OCCN1CCN(CCCN2c3ccccc3Sc3ccc(C(F)(F)F)cc32)CC1` [FLUPHENAZINE] the “Bacterial Biotransformation” value was “Compound NOT metabolized”.

Experiment: The drug is tested on Clostridium asparagiforme strain: DSM15981 for biotransformation. The drug concentrations were measured before and after a 12-h incubation by liquid-chromatography-coupled mass spectrometry (LC–MS)
Format: ADME
Design: dose 2 uM, timepoint 0 vs 12 hours
Conditions: enterocloster asparagiformis, 2 µM
For `COc1ccccc1OCC(O)COC(N)=O` (stereo not given) [METHOCARBAMOL], the “Bacterial Biotransformation” value was “Compound NOT metabolized”. In the case of `OCCN1CCN(CCCN2c3ccccc3Sc3ccc(C(F)(F)F)cc32)CC1` [FLUPHENAZINE], the “Bacterial Biotransformation” value is reported as “Compound NOT metabolized”.

Experiment: The drug is tested on Edwardsiella tarda strain: ATCC23685 for biotransformation. The drug concentrations were measured before and after a 12-h incubation by liquid-chromatography-coupled mass spectrometry (LC–MS)
Conditions: 2 µM
With `COc1ccccc1OCC(O)COC(N)=O` (stereo not given) [METHOCARBAMOL] the “Bacterial Biotransformation” value was “Compound NOT metabolized”. For `OCCN1CCN(CCCN2c3ccccc3Sc3ccc(C(F)(F)F)cc32)CC1` [FLUPHENAZINE], the “Bacterial Biotransformation” value was “Compound NOT metabolized”.

Conditions: enterocloster bolteae, 12 h, 2 µM
Description: The drug is tested on Clostridium bolteae strain: ATCCBAA-613 for biotransformation. The drug concentrations were measured before and after a 12-h incubation by liquid-chromatography-coupled mass spectrometry (LC–MS)
For `COc1ccccc1OCC(O)COC(N)=O` (stereo not given) [METHOCARBAMOL], the “Bacterial Biotransformation” value was “Compound NOT metabolized”. For `OCCN1CCN(CCCN2c3ccccc3Sc3ccc(C(F)(F)F)cc32)CC1` [FLUPHENAZINE], the “Bacterial Biotransformation” value was “Compound NOT metabolized”.

Experiment: The drug is tested on Bacteroides coprophilus strain: DSM18228 for biotransformation. The drug concentrations were measured before and after a 12-h incubation by liquid-chromatography-coupled mass spectrometry (LC–MS)
Conditions: 2 µM
For `COc1ccccc1OCC(O)COC(N)=O` (stereo not given) [METHOCARBAMOL], the “Bacterial Biotransformation” value was “Compound NOT metabolized”. For `OCCN1CCN(CCCN2c3ccccc3Sc3ccc(C(F)(F)F)cc32)CC1` [FLUPHENAZINE], the “Bacterial Biotransformation” value was “Compound NOT metabolized”.

Experiment: The drug is tested on Parabacteroides merdae strain: ATCC43184 for biotransformation. The drug concentrations were measured before and after a 12-h incubation by liquid-chromatography-coupled mass spectrometry (LC–MS)
Conditions: 2 µM
In the case of `COc1ccccc1OCC(O)COC(N)=O` (stereo not given) [METHOCARBAMOL], the “Bacterial Biotransformation” value is reported as “Compound NOT metabolized”. With `OCCN1CCN(CCCN2c3ccccc3Sc3ccc(C(F)(F)F)cc32)CC1` [FLUPHENAZINE] the “Bacterial Biotransformation” value was “Compound NOT metabolized”.

Experiment: The drug is tested on Ruminococcus torques strain: ATCC27756 for biotransformation. The drug concentrations were measured before and after a 12-h incubation by liquid-chromatography-coupled mass spectrometry (LC–MS)
Format: ADME
Design: dose 2 uM, timepoint 0 vs 12 hours
Conditions: 2 µM
For `COc1ccccc1OCC(O)COC(N)=O` (stereo not given) [METHOCARBAMOL], the “Bacterial Biotransformation” value was “Compound NOT metabolized”. With `OCCN1CCN(CCCN2c3ccccc3Sc3ccc(C(F)(F)F)cc32)CC1` [FLUPHENAZINE] the “Bacterial Biotransformation” value was “Compound NOT metabolized”.

Conditions: bacteroides stercoris, 12 h, 2 µM
Description: The drug is tested on Bacteroides stercoris strain: ATCC43183 for biotransformation. The drug concentrations were measured before and after a 12-h incubation by liquid-chromatography-coupled mass spectrometry (LC–MS)
In the case of `COc1ccccc1OCC(O)COC(N)=O` (stereo not given) [METHOCARBAMOL], the “Bacterial Biotransformation” value is reported as “Compound NOT metabolized”. For `OCCN1CCN(CCCN2c3ccccc3Sc3ccc(C(F)(F)F)cc32)CC1` [FLUPHENAZINE], the “Bacterial Biotransformation” value was “Compound metabolized”.

Experiment: The drug is tested on Bacteroides ovatus strain: ATCC8483 for biotransformation. The drug concentrations were measured before and after a 12-h incubation by liquid-chromatography-coupled mass spectrometry (LC–MS)
Conditions: 2 µM
In the case of `COc1ccccc1OCC(O)COC(N)=O` (stereo not given) [METHOCARBAMOL], the “Bacterial Biotransformation” value is reported as “Compound NOT metabolized”. For `OCCN1CCN(CCCN2c3ccccc3Sc3ccc(C(F)(F)F)cc32)CC1` [FLUPHENAZINE], the “Bacterial Biotransformation” value was “Compound NOT metabolized”.

Experiment: The drug is tested on Bacteroides fragilis strain: ATCC43859 for biotransformation. The drug concentrations were measured before and after a 12-h incubation by liquid-chromatography-coupled mass spectrometry (LC–MS)
Conditions: 2 µM
For `COc1ccccc1OCC(O)COC(N)=O` (stereo not given) [METHOCARBAMOL], the “Bacterial Biotransformation” value was “Compound NOT metabolized”. In the case of `OCCN1CCN(CCCN2c3ccccc3Sc3ccc(C(F)(F)F)cc32)CC1` [FLUPHENAZINE], the “Bacterial Biotransformation” value is reported as “Compound NOT metabolized”.

Experiment: The drug is tested on Bacteroides fragilis strain: HMW610 for biotransformation. The drug concentrations were measured before and after a 12-h incubation by liquid-chromatography-coupled mass spectrometry (LC–MS)
Conditions: 2 µM
In the case of `COc1ccccc1OCC(O)COC(N)=O` (stereo not given) [METHOCARBAMOL], the “Bacterial Biotransformation” value is reported as “Compound NOT metabolized”.

Experiment: The drug is tested on Dorea formicigenerans strain: ATCC27755 for biotransformation. The drug concentrations were measured before and after a 12-h incubation by liquid-chromatography-coupled mass spectrometry (LC–MS)
Conditions: 2 µM
In the case of `COc1ccccc1OCC(O)COC(N)=O` (stereo not given) [METHOCARBAMOL], the “Bacterial Biotransformation” value is reported as “Compound NOT metabolized”. With `OCCN1CCN(CCCN2c3ccccc3Sc3ccc(C(F)(F)F)cc32)CC1` [FLUPHENAZINE] the “Bacterial Biotransformation” value was “Compound metabolized”.

Experiment: The drug is tested on Collinsella intestinalis strain: DSM13280 for biotransformation. The drug concentrations were measured before and after a 12-h incubation by liquid-chromatography-coupled mass spectrometry (LC–MS)
Conditions: 2 µM
For `COc1ccccc1OCC(O)COC(N)=O` (stereo not given) [METHOCARBAMOL], the “Bacterial Biotransformation” value was “Compound NOT metabolized”. With `OCCN1CCN(CCCN2c3ccccc3Sc3ccc(C(F)(F)F)cc32)CC1` [FLUPHENAZINE] the “Bacterial Biotransformation” value was “Compound NOT metabolized”.

Experiment: The drug is tested on Coprococcus comes strain: ATCC27758 for biotransformation. The drug concentrations were measured before and after a 12-h incubation by liquid-chromatography-coupled mass spectrometry (LC–MS)
Format: ADME
Design: dose 2 uM, timepoint 0 vs 12 hours
Conditions: 2 µM
For `COc1ccccc1OCC(O)COC(N)=O` (stereo not given) [METHOCARBAMOL], the “Bacterial Biotransformation” value was “Compound NOT metabolized”. For `OCCN1CCN(CCCN2c3ccccc3Sc3ccc(C(F)(F)F)cc32)CC1` [FLUPHENAZINE], the “Bacterial Biotransformation” value was “Compound metabolized”.

Experiment: The drug is tested on Blautia luti strain: DSM14534 for biotransformation. The drug concentrations were measured before and after a 12-h incubation by liquid-chromatography-coupled mass spectrometry (LC–MS)
Format: ADME
Design: dose 2 uM, timepoint 0 vs 12 hours
Conditions: 2 µM
With `COc1ccccc1OCC(O)COC(N)=O` (stereo not given) [METHOCARBAMOL] the “Bacterial Biotransformation” value was “Compound NOT metabolized”. In the case of `OCCN1CCN(CCCN2c3ccccc3Sc3ccc(C(F)(F)F)cc32)CC1` [FLUPHENAZINE], the “Bacterial Biotransformation” value is reported as “Compound NOT metabolized”.
